The assay deals with primary rat mixed cortical cells. Nature of the assay: In vitro myelination assay (MBP positive myelin strands, fold myelin pixels above background). The assay is classed as cell-based. The following applies: Rattus norvegicus, relative to baseline of no added compound, read-out: Fold myelin pixels above background; for fold induction at 1 µM: 1.0 μM compound; for fold induction at 10 µM: 10.0 μM compound. In outline: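 Compounds at 1.0 and 10.0 μM were incubated 14 days with dissociated P1 rat cortical cells, which were then fixed and immunostained for MBP. Myelination was scored as fold MBP myelin pixels per well over the no-compound baseline.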

Fold induction data for 21 compounds are collected here from patent publication US10766869B2, “Triazoles for the treatment of demyelinating dieases” (Vertex Pharmaceuticals Incorporated, priority 2015, dated 2020).

Consider `Cc1cc(Nc2ncn(-c3cc(F)cc(F)c3)n2)cc(C2CN(C3COC3)C(C)CO2)c1` (stereo not drawn) [Compound 629, 1-(3,5-difluorophenyl)-N-[3-methyl-5-[5-methyl-4-(oxetan-3-yl)morpholin-2-yl]phenyl]-1,2,4-triazol-3-amine], for which the fold induction at 1 µM fell in the range of 10 to 100 and the fold induction at 10 µM is at most 1.

Turning to `Cc1cc(CN2CCN(C3COC3)CC2)c(F)c(Nc2ncn(-c3cc(F)cc(F)c3)n2)c1` [Compound 630, 1-(3,5-difluorophenyl)-N-[2-fluoro-5-methyl-3-[[4-(oxetan-3-yl)piperazin-1-yl]methyl]phenyl]-1,2,4-triazol-3-amine], the fold induction at 1 µM lay within 1 to 10 and the fold induction at 10 µM fell in the range of 1 to 10.

For the compound `Cc1cc(Nc2ncn(-c3cc(F)cc(F)c3)n2)nc(C2=CCNCC2)c1` [Compound 631, N-[1-(3,5-difluorophenyl)-1,2,4-triazol-3-yl]-4-methyl-6-(1,2,3,6-tetrahydropyridin-4-yl)pyridin-2-amine], the fold induction at 1 µM was 1 to 10 and the fold induction at 10 µM lay in the range of 1 to 10.

For the compound `Cc1cc(Nc2ncn(-c3ccc(F)c(F)c3)n2)cc(N2CCN(C3(C)COC3)CC2)c1` [Compound 633, 1-(3,4-difluorophenyl)-N-[3-methyl-5-[4-(3-methyloxetan-3-yl)piperazin-1-yl]phenyl]-1,2,4-triazol-3-amine], the fold induction at 1 µM is 10 to 100 and the fold induction at 10 µM was 10 to 100.

In the case of `Cc1cc(Nc2ncn(-c3cc(F)cc(F)c3)n2)cc(N2CC(N3CCCCC3)C2)c1` [Compound 634, 1-(3,5-difluorophenyl)-N-[3-methyl-5-[3-(1-piperidyl)azetidin-1-yl]phenyl]-1,2,4-triazol-3-amine], the fold induction at 1 µM lay in the range of 10 to 100 and the fold induction at 10 µM is 10 to 100.

`Cc1cc(Nc2ncn(-c3cc(F)cc(F)c3)n2)cc(OC2CCCOC2)c1` (stereo not drawn) [Compound 635, 1-(3,5-difluorophenyl)-N-(3-methyl-5-tetrahydropyran-3-yloxy-phenyl)-1,2,4-triazol-3-amine]: the fold induction at 1 µM is 10 to 100 and the fold induction at 10 µM lay within 1 to 10.

For the compound `FC(F)c1cccc(-n2cnc(Nc3cc(C(F)(F)F)cc(N4CC(N5CCOCC5)C4)n3)n2)c1` [Compound 636, N-[1-[3-(difluoromethyl)phenyl]-1,2,4-triazol-3-yl]-6-(3-morpholinoazetidin-1-yl)-4-(trifluoromethyl)pyridin-2-amine], the fold induction at 1 µM fell in the range of 1 to 10 and the fold induction at 10 µM fell in the range of 1 to 10.

`Cc1cc(Nc2ncn(-c3cc(F)cc(F)c3)n2)cc(N2CCCN(C3COC3)CC2)c1` [Compound 637, 1-(3,5-difluorophenyl)-N-[3-methyl-5-[4-(oxetan-3-yl)-1,4-diazepan-1-yl]phenyl]-1,2,4-triazol-3-amine]: the fold induction at 1 µM is 100 to 1000 and the fold induction at 10 µM was at most 1.

Take `Cc1cc(Nc2ncn(-c3ccc(F)c(F)c3)n2)cc(OC2CCCOC2)c1` (stereo not drawn) [Compound 638, 1-(3,4-difluorophenyl)-N-(3-methyl-5-tetrahydropyran-3-yloxy-phenyl)-1,2,4-triazol-3-amine]: the fold induction at 1 µM fell in the range of 10 to 100 and the fold induction at 10 µM was in the range of 10 to 100.

Take `COc1cc(Nc2ncn(-c3cccc(C(F)F)c3)n2)nc(N2CCN(C3COC3)CC2)c1` [Compound 639, N-[1-[3-(difluoromethyl)phenyl]-1,2,4-triazol-3-yl]-4-methoxy-6-[4-(oxetan-3-yl)piperazin-1-yl]pyridin-2-amine]: the fold induction at 1 µM is 1 to 10 and the fold induction at 10 µM was in the range of 1 to 10.

Turning to `Cc1cc(Nc2ncn(-c3ccc(F)c(F)c3)n2)cc(OCC2CC(F)(F)C2)c1` [Compound 640, N-[3-[(3,3-difluorocyclobutyl)methoxy]-5-methyl-phenyl]-1-(3,4-difluorophenyl)-1,2,4-triazol-3-amine], the fold induction at 1 µM is 10 to 100 and the fold induction at 10 µM fell in the range of 1 to 10.

For `Cc1c(Nc2ncn(-c3cc(F)cc(F)c3)n2)cc(N2CC(N3CCOCC3)C2)cc1OC(C)C` [Compound 641, 1-(3,5-difluorophenyl)-N-[3-isopropoxy-2-methyl-5-(3-morpholinoazetidin-1-yl)phenyl]-1,2,4-triazol-3-amine], the fold induction at 1 µM is 10 to 100 and the fold induction at 10 µM fell in the range of 1 to 10.

For the compound `Fc1cc(Nc2ncn(-c3ccccn3)n2)cc(N2CCN(C3COC3)CC2)c1` [Compound 642, N-[3-fluoro-5-[4-(oxetan-3-yl)piperazin-1-yl]phenyl]-1-(2-pyridyl)-1,2,4-triazol-3-amine], the fold induction at 1 µM was 1 to 10 and the fold induction at 10 µM fell in the range of 10 to 100.

As to `Cc1cc(Nc2ncn(-c3ccccc3)n2)cc(Nc2nccs2)c1` [Compound 643, 5-methyl-N3-(1-phenyl-1,2,4-triazol-3-yl)-N1-thiazol-2-yl-benzene-1,3-diamine], the fold induction at 1 µM lay within 10 to 100 and the fold induction at 10 µM was at most 1.

Turning to `Cc1cc(Nc2ncn(-c3cccc(C(F)(F)F)c3)n2)cc(OCCn2cccn2)c1` [Compound 644, N-[3-methyl-5-(2-pyrazol-1-ylethoxy)phenyl]-1-[3-(trifluoromethyl)phenyl]-1,2,4-triazol-3-amine], the fold induction at 1 µM lay within 1 to 10 and the fold induction at 10 µM lay in the range of 10 to 100.

`COCC1CCN(c2cc(C(F)F)cc(Nc3ncn(-c4cccc(C(F)F)c4)n3)n2)CC1` [Compound 645, 4-(difluoromethyl)-N-[1-[3-(difluoromethyl)phenyl]-1,2,4-triazol-3-yl]-6-[4-(methoxymethyl)-1-piperidyl]pyridin-2-amine]: the fold induction at 1 µM was 1 to 10 and the fold induction at 10 µM was in the range of 10 to 100.

Consider `COc1c(F)cc(-n2cnc(Nc3cc(C)cc(N4CCN(C5COC5)CC4)c3)n2)cc1F` [Compound 646, 1-(3,5-difluoro-4-methoxy-phenyl)-N-[3-methyl-5-[4-(oxetan-3-yl)piperazin-1-yl]phenyl]-1,2,4-triazol-3-amine], for which the fold induction at 1 µM lay in the range of 10 to 100 and the fold induction at 10 µM was 1 to 10.

As for `Cc1cc(-n2cnc(Nc3cc(F)cc(N4CCN(C5COC5)CC4)c3)n2)ccc1F` [Compound 647, 1-(4-fluoro-3-methyl-phenyl)-N-[3-fluoro-5-[4-(oxetan-3-yl)piperazin-1-yl]phenyl]-1,2,4-triazol-3-amine], the fold induction at 1 µM was 1 to 10 and the fold induction at 10 µM is at most 1.

In the case of `Cc1cc(Nc2ncn(-c3cc(F)cc(F)c3)n2)cc(OCC2CCOC2)c1` (stereo not drawn) [Compound 648, 1-(3,5-difluorophenyl)-N-[3-methyl-5-(tetrahydrofuran-3-ylmethoxy)phenyl]-1,2,4-triazol-3-amine], the fold induction at 1 µM was in the range of 10 to 100 and the fold induction at 10 µM was in the range of 10 to 100.

On to `CN1CCN(c2cc(N3CCN(C4COC4)CC3)cc(Nc3ncn(-c4cc(F)cc(F)c4)n3)n2)CC1` [Compound 650, N-[1-(3,5-difluorophenyl)-1,2,4-triazol-3-yl]-6-(4-methylpiperazin-1-yl)-4-[4-(oxetan-3-yl)piperazin-1-yl]pyridin-2-amine], for which the fold induction at 1 µM was 10 to 100 and the fold induction at 10 µM is 1 to 10.

Regarding `Cc1cc(Nc2ncn(-c3cccc(C(F)(F)F)c3)n2)cc(N2CC(N3CCOCC3)C2)c1` [Compound 651, N-[3-methyl-5-(3-morpholinoazetidin-1-yl)phenyl]-1-[3-(trifluoromethyl)phenyl]-1,2,4-triazol-3-amine], the fold induction at 1 µM lay in the range of 10 to 100 and the fold induction at 10 µM was 1 to 10.
